{
  "source": "patent US10286000B2",
  "about": "“Retinoid X receptor-gamma agonists and retinoid X receptor-alpha antagonists for treatment of cancer” (St. Jude Children's Research Hospital, Inc., priority 2013, dated 2019)",
  "key": {"TIMP2 and TIMP3": {"system": "TIMP2 and TIMP3", "experiment": "qRT-PCR of TIMP2 and TIMP3 mRNA", "assay_type": "cell-based, human", "details": "CAL27 and all the colon cancer cell lines, 56 μM 3 days", "procedure": "(§1) The number of cells that invaded the ECM was determined after 24 h. Data are expressed as percentage change in tumor invasion relative to that of DMSO-treated cells (n=3). (D) Wound healing by DMSO- and SPIR-treated HCT116, HT29, and CAL27 cells was compared. Data are calculated as the percentage change in distance of migration relative to that of DMSO-treated cells (n=3). […] Tumor xenografts and lung metastases were detected by bioluminescence imaging on day 25. Data are shown as the average total flux (photons/second)±standard deviation (n=8). (F) The lung metastases (arrows) were confirmed by examining lung tissue sections. * P≤0.05, ** P<0.01, *** P<0.005, **** P<0.0001.\nFor qRT-PCR, total RNA was extracted from untreated or drug-treated tumor cells by using the RNA Clean & Concentrator (Zymo Research). All cDNA was generated by using the SuperScript VILO cDNA Synthesis kit (Life Technologies) and diluted 10-fold for analysis using the 7900HT Fast Real-time PCR System (Applied Biosystems). The data were calculated as the CT of target genes normalized to the CT of GAPDH of each sample. Primer sequences of the target genes were: MICA-F: 5′-[…]-3′, (SEQ ID NO: 14) MICA-R: 5′-[…]-[…]-3′, (SEQ ID NO: 15) MICB-F: 5′-[…]-3′, (SEQ ID NO: 16) MICB-R:5′-CCCTC-[…]-3′, (SEQ ID NO: 17), ULBP1-F:5′-[…]-3′, (SEQ ID NO: 18), ULBP1-R:5′-[…]-3′, (SEQ ID NO: 19), ULBP2-F:5′-[…]-3′, (SEQ ID NO: 20), ULBP2-R:5′-[…]-3′, (SEQ ID NO: 21), ULBP3-F:5′-[…]-TTCG-3′, (SEQ ID NO: 22), ULBP3-R:[…]-3′, (SEQ ID NO: 23), TIMP2-F:5′-[…]-[…]-3′, (SEQ ID NO: 24), TIMP2-R:[…]-3′, (SEQ ID NO: 25), TIMP3-F:5′-[…]-3′, (SEQ ID NO: 26), TIMP3-R:5′-[…]-[…]-3′ (SEQ ID NO: 27), GAPDH-F: 5′-[…]3′ (SEQ ID NO: 28), GAPDH-R: 5′-G-[…]-3′ (SEQ ID NO: 29). […] Differentially expressed transcripts were analyzed by ANOVA on Spotfire program."}, "[1]": {"system": "NKG2DL mRNA in colon cancer cell lines", "experiment": "qRT-PCR of NKG2DL mRNA", "assay_type": "cell-based, human", "details": "relative to DMSO", "procedure": "For qRT-PCR, total RNA was extracted from untreated or drug-treated tumor cells by using the RNA Clean & Concentrator (Zymo Research). All cDNA was generated by using the SuperScript VILO cDNA Synthesis kit (Life Technologies) and diluted 10-fold for analysis using the 7900HT Fast Real-time PCR System (Applied Biosystems). The data were calculated as the CT of target genes normalized to the CT of GAPDH of each sample. […] Differentially expressed transcripts were analyzed by ANOVA on Spotfire program."}, "[2]": {"system": "HCT116, HT29, and CAL27 cells", "experiment": "in vitro cell invasion assay (ECM-coated Transwell)", "assay_type": "cell-based, human", "details": "HCT116, HT29, CAL27", "procedure": "as §1\nThe invasiveness of the tumor cells was determined by using the CytoSelect 96-well Cell Invasion Assay with Basement Membrane (Cell Biolabs) according to the manufacturer instructions."}, "HDAC": {"system": "HDAC", "experiment": "HDAC activity and HDAC3 mRNA after SPIR treatment", "assay_type": "cell-based, human"}, "HCT116 xenograft": {"system": "HCT116 xenograft", "experiment": "HCT116 xenograft model in NSG mice (bioluminescence imaging)", "assay_type": "in vivo", "procedure": "(A) 1×10^6 luciferase-expressing HCT116 cells, alone or with 2×10^7 NKL cells, were subcutaneously injected into 8- to 10-week-old NSG mice (n=4). […] HCT116 xenograft growth was analyzed by performing bioluminescence imaging on day 15. (B) 1×10^6 HCT116 cells were subcutaneously injected into 8- to 10-week-old NSG mice. […] Tumor sections were prepared for ULBP2 immunohistochemical staining on day 15. (C) NKG2D expression on the cell surface of YT-INDY and YT-INDY-NKG2D cells was analyzed by flow cytometry. […] (D) 1×10^6 luciferase-expressing HCT116 cells were subcutaneously injected into 8- to 10-week-old NSG mice with either 1×10^6 YT-INDY or YT-INDY-NKG2D cells (n=8 per group). […] HCT116 xenograft growth was analyzed by performing bioluminescence imaging on day 15. (E) MICA-B and ULBP1-3 expressions on the cell surface of HCT116 or HCT116-ΔNKG2DLs cells were analyzed by flow cytometry. […] (F) 1×10^6 luciferase-expressing HCT116 or HCT116-ΔNKG2DLs cells were subcutaneously injected into 8- to 10-week-old NSG mice with 1×10^6 YT-INDY-NKG2D cells (n=8 per group). […] HCT116 xenograft growth was analyzed by performing bioluminescence imaging on day 10. […] 1×10^6 each of luciferase-expressing HCT116 cells and YT-INDY-NKG2D were injected subcutaneously into the mice on day 0. HCT116 xenograft growth was analyzed by performing bioluminescence imaging on day 3. * P<0.05, ** P<0.01, *** P<0.005, **** P<0.0005.\nLuciferase-expressing HCT116 and HT29 cells were generated by lentiviral transduction of the cells with a CMV promoter-driven luciferase expression construct engineered from the pLL3.7 vector. […] Bioluminescence imaging was performed in a Xenogen imaging system to monitor tumor growth and the data were analyzed using Living Image software (Caliper LifeSciences). For the lung metastasis model using HT29 cells, lungs were harvested for bioluminescence imaging and then fixed in 10% neutral buffered formalin, paraffin embedded, sectioned, and stained with hematoxylin and eosin. A total of six lung sections at 100-μm intervals were collected for the observation of pulmonary nodules. For the hepatic metastasis model, 0.5×10^6 of luciferase-expressing HCT116 cells were intrasplenically implanted into 6-8 week-old NSG mice."}},
  "data": [
    {"molecule": "CC(=O)S[C@@H]1CC2=CC(=O)CC[C@]2(C)[C@H]2CC[C@@]3(C)[C@@H](CC[C@@]34CCC(=O)O4)[C@H]12", "note": "[SPIR, spironolactone]", "values": [
      {"measurement": "mRNA expression of TIMP2 and TIMP3", "setting": "TIMP2 and TIMP3", "result": "significantly upregulated"},
      {"measurement": "NKG2DL mRNA levels", "setting": "[1]", "result": "increase in mRNA levels"},
      {"measurement": "invasion through ECM-coated membranes", "setting": "[2]", "result": "significantly suppressed invasion"},
      {"measurement": "HDAC activities", "setting": "HDAC; SW480 or HCT116 cells", "result": "did not inhibit HDAC activities"},
      {"measurement": "mRNA expression of HDAC3", "setting": "HDAC; after SPIR treatment", "result": "no significant change"},
      {"measurement": "tumor growth in the presence of YT-INDY-NKG2D", "setting": "HCT116 xenograft; 1.25 mg/mouse i.p.", "result": "strongly suppressed the tumor growth"},
      {"measurement": "tumor growth, mice bearing NKL cells", "setting": "HCT116 xenograft; HCT116 plus NKL cells, 1.25 mg/mouse i.p. twice a week for 2 weeks", "result": "suppressed tumor growth considerably"},
      {"measurement": "tumor growth, SPIR alone", "setting": "HCT116 xenograft; HCT116 without NKL cells, 1.25 mg/mouse i.p. twice a week for 2 weeks", "result": "did not affect tumor growth"},
      {"measurement": "HCT116 xenograft growth in YT-INDY-bearing mice", "setting": "HCT116 xenograft; NKG2D-negative NK cell line", "result": "did not reduce the HCT116 xenograft growth"},
      {"measurement": "tumor susceptibility to NK cell killing triggered by SPIR, HCT116-ΔNKG2DLs", "setting": "HCT116 xenograft; NKG2DL-deficient HCT116 vs HCT116, YT-INDY-NKG2D", "result": "significantly reduced tumor susceptibility to NK cell killing"},
      {"measurement": "ULBP2 expression in the HCT116 xenografts", "setting": "HCT116 xenograft; immunohistochemical staining day 15", "result": "significantly enhanced ULBP2 expression"},
      {"measurement": "tumor development after pretreatment", "setting": "HCT116 xenograft; pretreating twice a week for 2 weeks before HCT116 and YT-INDY-NKG2D implantation", "result": "greatly inhibited tumor development"}
    ]}
  ]
}
